For this test, the target named is δ opioid receptor (DOR) (Homo sapiens, UniProt P41143). The test can be described thus: competition radioligand binding vs 3H-diprenorphine, DOR-CHO membranes.

Among the data in article PMC8998802 (Pain, 2019) are Ki values, retold here.

As a reminder, the Ki is a measure of affinity in units of concentration, obtained from inhibition or displacement. Lower therefore signals a stronger hold on the target.

Chain of δ opioid receptor (DOR) (P41143 whole entry): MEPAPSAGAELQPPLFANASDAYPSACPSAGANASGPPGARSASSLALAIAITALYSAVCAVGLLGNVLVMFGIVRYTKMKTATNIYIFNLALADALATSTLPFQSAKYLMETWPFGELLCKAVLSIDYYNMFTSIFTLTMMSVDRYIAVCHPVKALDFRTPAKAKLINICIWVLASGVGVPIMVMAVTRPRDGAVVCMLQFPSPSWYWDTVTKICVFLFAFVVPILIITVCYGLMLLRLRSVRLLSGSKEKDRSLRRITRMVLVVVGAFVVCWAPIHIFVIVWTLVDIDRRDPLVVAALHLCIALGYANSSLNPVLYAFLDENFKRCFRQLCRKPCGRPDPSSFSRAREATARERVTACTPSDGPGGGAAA

Compound `Cc1noc(C)c1CC(=O)NCc1nc(NCCCc2ccccc2)c2ccccc2n1` [IPPQ, 2-(3,5-dimethylisoxazol-4-yl)-N-((4-((3-phenylpropyl)amino)quinazolin-2-yl)methyl)acetamide] showed a Ki above 1000 nM.
